Measurements from patent US10975042B2, “Method for purifying an amino acid-n-carboxy anhydride” (SHIN-ETSU CHEMICAL CO., LTD., priority 2018, dated 2021).

Experiment: Long-term storage stability of NCA, purity by DSC
Assay type: physicochemical
Details: DSC
Procedure: In Examples and Comparative Examples, the purity of each NCA was measured using differential scanning calorimeter (DSC) in accordance with 2.52 thermal analysis method of The Japanese Pharmacopoeia, 17th ed. (2.4.4. measurement of purity). The measurement was performed using Thermo plus EVO DSC8230 (manufactured by Rigalu Corporation) as a measurement apparatus with the sample amount of 1 mg at a temperature increasing rate of 1° C./minute. Incidentally, it is conceived that precise measurement cannot be guaranteed unless the purity is 98 mol % or more according to 2.52 thermal analysis method of The Japanese Pharmacopoeia, 17th ed. (2.4.4. measurement of purity).
Each purified NCA was evaluated for long-term storage stability. […] Regarding the conditions of −20±5° C., the results of purity measured by DSC at after a half year, after 1 year, and after 2 years are shown. Regarding the conditions of 0 to 5° C., the results of purity measured by DSC at after 1 month, 2 months, and a half year are shown. As a comparison, commercially available NCA shown by the general formula (A) (manufactured by Isochem), the purity of which is more than 98 mol % based on the DSC measurement, was evaluated and shown as Comparison 1. This NCA has a residual chlorine concentration of 0.030 mass % and belongs to a lot with extremely low residual chlorine concentration in commercially available NCAs.

[1] = initial value of storage test at 0 to 5° C.
[2] = initial value of storage test at −20±5° C.

| SMILES | Purity after purification [1] [mol %] | Purity after purification [2] [mol %] | Purity after 1 month from purification (storage at 0 to 5° C.) [mol %] | Purity after 2 months from purification (storage at 0 to 5° C.) [mol %] | Purity after a half year from purification (storage at 0 to 5° C.) [mol %] | Purity after 1 year from purification (storage at −20±5° C.) [mol %] | Purity after 2 years from purification (storage at −20±5° C.) [mol %] | Purity after a half year from purification (storage at −20±5° C.) [mol %] |
| --- | --- | --- | --- | --- | --- | --- | --- | --- |
| O=C(CCC1NC(=O)OC1=O)OCc1ccccc1 (stereo not shown) [(B)] | 99.40 | 99.40 | 99.39 | 99.41 | 99.41 | 99.41 | 99.40 | 99.40 |
| CC(=O)OCCCC1NC(=O)OC1=O (stereo not shown) [(C)] | 99.20 | 99.20 | 99.22 | 99.21 | 99.19 | 99.22 | 99.21 | 99.22 |
| COCOCCCC1NC(=O)OC1=O (stereo not shown) [(D)] | 99.00 | 99.00 | 98.98 | 99.00 | 98.95 | 99.00 | 99.05 | 98.95 |
| O=C1NC(CCCOCc2ccccc2)C(=O)O1 (stereo not shown) [(E)] | 98.90 | 98.90 | 98.90 | 98.88 | 98.86 | 98.88 | 98.89 | 98.89 |
| CC(C)(C)OCCCC1NC(=O)OC1=O (stereo not shown) [(F)] | 99.10 | 99.10 | 99.12 | 99.10 | 99.10 | 99.12 | 99.12 | 99.12 |
| O=C(CC1NC(=O)OC1=O)OCc1ccccc1 (stereo not shown) [(G)] | 99.25 | 99.25 | 99.24 | 99.25 | 99.26 | 99.26 | 99.25 | 99.25 |
| CC(C)(C)OC(=O)CC1NC(=O)OC1=O (stereo not shown) [(H)] | 99.18 | 99.18 | 99.19 | 99.19 | 99.18 | 99.16 | 99.16 | 99.17 |
| CC(C)(C)[Si](OCCC1NC(=O)OC1=O)(c1ccccc1)c1ccccc1 (stereo not shown) [(I)] | 99.35 | 99.35 | 99.35 | 99.36 | 99.36 | 99.36 | 99.36 | 99.35 |
| O=C1CNC(=O)O1 [(J)] | 99.10 | 99.10 | 99.12 | 99.10 | 99.08 | 99.12 | 99.10 | 99.15 |
| CN1CC(=O)OC1=O [(K)] | 98.94 | 98.94 | 98.93 | 98.92 | 98.90 | 98.92 | 98.93 | 98.90 |
| CC(C)(C)OC(=O)N1CC(=O)OC1=O [(L)] | 99.05 | 99.05 | 99.07 | 99.05 | 99.07 | 99.04 | 99.05 | 99.02 |
| CC(=O)N1CC(=O)OC1=O [(M)] | 99.22 | 99.22 | 99.23 | 99.22 | 99.24 | 99.23 | 99.23 | 99.23 |
| O=C1NC(Cc2ccccc2)C(=O)O1 (stereo not shown) [(N)] | 98.88 | 98.88 | 98.88 | 98.86 | 98.86 | 98.86 | 98.85 | 98.85 |
| CC(C)C1NC(=O)OC1=O (stereo not shown) [(O)] | 98.80 | 98.80 | 98.77 | 98.75 | 98.73 | 98.79 | 98.79 | 98.77 |
| CC(C)CC1NC(=O)OC1=O (stereo not shown) [(P)] | 98.91 | 98.91 | 98.93 | 98.94 | 98.94 | 98.90 | 98.91 | 98.92 |
| O=C1CCNC(=O)O1 [(Q)] | 99.32 | 99.32 | 99.31 | 99.31 | 99.32 | 99.33 | 99.33 | 99.33 |
| O=C1CCCNC(=O)O1 [(R)] | 99.03 | 99.03 | 99.05 | 99.04 | 99.03 | 99.06 | 99.05 | 99.07 |
